{
  "source": "ChEMBL document CHEMBL2440005",
  "about": "“Discovery and structure-activity relationships of 6-(benzoylamino)benzoxaboroles as orally active anti-inflammatory agents” (Bioorg Med Chem Lett, 2013)",
  "key": {"[1]": {"biological_target": "Protein kinase C beta type (Homo sapiens) (UniProt P05771)", "sequence (P05771 2-671 limits assumed)": "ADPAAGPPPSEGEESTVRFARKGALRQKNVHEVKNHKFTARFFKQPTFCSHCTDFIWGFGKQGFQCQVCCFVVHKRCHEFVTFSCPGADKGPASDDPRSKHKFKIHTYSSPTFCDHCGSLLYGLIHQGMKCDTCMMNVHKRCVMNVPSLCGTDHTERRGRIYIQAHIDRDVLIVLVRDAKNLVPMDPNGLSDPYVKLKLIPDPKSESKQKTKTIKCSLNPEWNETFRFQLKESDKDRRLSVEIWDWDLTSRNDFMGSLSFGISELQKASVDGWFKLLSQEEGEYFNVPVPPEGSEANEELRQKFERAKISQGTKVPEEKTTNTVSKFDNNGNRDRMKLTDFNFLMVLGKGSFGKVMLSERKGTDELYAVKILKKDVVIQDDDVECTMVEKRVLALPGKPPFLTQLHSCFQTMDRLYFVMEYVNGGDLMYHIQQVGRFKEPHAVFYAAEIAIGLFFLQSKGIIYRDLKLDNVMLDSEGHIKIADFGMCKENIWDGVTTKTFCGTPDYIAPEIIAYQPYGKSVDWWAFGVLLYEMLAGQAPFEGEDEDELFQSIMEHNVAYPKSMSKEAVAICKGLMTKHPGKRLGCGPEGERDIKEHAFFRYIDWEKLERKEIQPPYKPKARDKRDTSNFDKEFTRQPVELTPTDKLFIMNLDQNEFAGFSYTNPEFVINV", "assay": "Inhibition of PKCbeta (unknown origin) at 30 uM"}, "[2]": {"biological_target": "Interleukin-1 receptor-associated kinase 1 (Homo sapiens) (UniProt P51617)", "sequence (P51617 whole entry, looked up)": "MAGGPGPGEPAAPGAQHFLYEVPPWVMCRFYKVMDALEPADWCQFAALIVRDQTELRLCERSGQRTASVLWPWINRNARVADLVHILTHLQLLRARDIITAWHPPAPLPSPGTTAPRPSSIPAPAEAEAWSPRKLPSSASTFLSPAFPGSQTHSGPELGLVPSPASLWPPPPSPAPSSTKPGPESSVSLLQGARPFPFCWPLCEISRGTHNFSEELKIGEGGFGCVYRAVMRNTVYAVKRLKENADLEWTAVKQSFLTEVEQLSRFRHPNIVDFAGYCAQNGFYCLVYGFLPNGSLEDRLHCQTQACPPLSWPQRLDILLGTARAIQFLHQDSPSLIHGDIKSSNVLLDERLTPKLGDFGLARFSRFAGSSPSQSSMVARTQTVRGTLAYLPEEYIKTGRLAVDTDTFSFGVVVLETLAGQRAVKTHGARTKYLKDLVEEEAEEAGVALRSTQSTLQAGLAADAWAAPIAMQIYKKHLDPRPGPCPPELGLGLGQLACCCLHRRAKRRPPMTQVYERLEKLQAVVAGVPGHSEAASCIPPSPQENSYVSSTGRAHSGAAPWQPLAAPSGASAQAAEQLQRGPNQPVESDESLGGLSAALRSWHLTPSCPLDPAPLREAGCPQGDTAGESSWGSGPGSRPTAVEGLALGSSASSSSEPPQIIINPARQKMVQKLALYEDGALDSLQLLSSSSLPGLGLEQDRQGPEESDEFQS", "assay": "Inhibition of IRAK1 (unknown origin) at 30 uM"}, "[3]": {"biological_target": "RAC-gamma serine/threonine-protein kinase (Homo sapiens) (UniProt Q9Y243)", "assay": "Inhibition of AKT3 (unknown origin) at 30 uM"}, "[4]": {"biological_target": "Mitogen-activated protein kinase 12 (Homo sapiens) (UniProt P53778)", "assay": "Inhibition of p38gamma (unknown origin) at 30 uM"}, "[5]": {"biological_target": "RAC-alpha serine/threonine-protein kinase (Homo sapiens) (UniProt P31749)", "assay": "Inhibition of AKT1 (unknown origin) at 30 uM"}, "[6]": {"assay": "Terminal half life in mouse at 2 mg/kg, iv", "assay_type": "ADME, organism-based", "parameters": "dose 2 mg/kg, route intravenous", "conditions": "in vivo, read-out: beta t1/2 (converted)"}, "[7]": {"biological_target": "Inhibitor of nuclear factor kappa-B kinase subunit beta (Homo sapiens) (UniProt O14920)", "assay": "Inhibition of IKKbeta (unknown origin) at 30 uM"}, "PBMC": {"test_system": "PBMC", "assay": "Antiinflammatory activity in human PBMC assessed as inhibition of LPS-induced TNFalpha release incubated for 15 mins prior to LPS-challenge measured after 24 hrs by HTRF assay", "assay_type": "functional, cell-based"}, "[8]": {"assay": "Tmax in mouse at 4 mg/kg, po", "assay_type": "ADME, organism-based", "parameters": "dose 4 mg/kg, route oral", "conditions": "in vivo"}, "[9]": {"assay": "Terminal half life in mouse at 4 mg/kg, po", "assay_type": "ADME, organism-based", "parameters": "dose 4 mg/kg, route oral", "conditions": "in vivo, read-out: beta t1/2 (converted)"}, "[10]": {"biological_target": "Interleukin-1 receptor-associated kinase 4 (Homo sapiens) (UniProt Q9NWZ3)", "sequence (Q9NWZ3 whole entry)": "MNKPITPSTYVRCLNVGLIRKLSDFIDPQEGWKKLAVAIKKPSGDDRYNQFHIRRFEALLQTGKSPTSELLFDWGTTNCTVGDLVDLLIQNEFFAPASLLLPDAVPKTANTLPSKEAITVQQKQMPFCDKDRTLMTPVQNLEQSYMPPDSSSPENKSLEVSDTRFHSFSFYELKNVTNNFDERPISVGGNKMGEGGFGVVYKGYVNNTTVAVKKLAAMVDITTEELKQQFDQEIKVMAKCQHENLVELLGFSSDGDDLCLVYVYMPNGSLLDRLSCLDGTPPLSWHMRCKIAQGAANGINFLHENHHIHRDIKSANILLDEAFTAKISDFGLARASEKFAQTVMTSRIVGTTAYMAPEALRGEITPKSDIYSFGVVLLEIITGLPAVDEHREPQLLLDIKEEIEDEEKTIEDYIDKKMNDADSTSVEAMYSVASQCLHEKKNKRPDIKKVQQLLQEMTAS", "assay": "Inhibition of IRAK4 (unknown origin) at 30 uM"}, "Homo sapiens": {"species": "Homo sapiens", "assay": "Inhibition of PKA (unknown origin) at 30 uM"}, "[11]": {"biological_target": "Mitogen-activated protein kinase 14 (Homo sapiens) (UniProt Q16539)", "sequence (Q16539 whole entry)": "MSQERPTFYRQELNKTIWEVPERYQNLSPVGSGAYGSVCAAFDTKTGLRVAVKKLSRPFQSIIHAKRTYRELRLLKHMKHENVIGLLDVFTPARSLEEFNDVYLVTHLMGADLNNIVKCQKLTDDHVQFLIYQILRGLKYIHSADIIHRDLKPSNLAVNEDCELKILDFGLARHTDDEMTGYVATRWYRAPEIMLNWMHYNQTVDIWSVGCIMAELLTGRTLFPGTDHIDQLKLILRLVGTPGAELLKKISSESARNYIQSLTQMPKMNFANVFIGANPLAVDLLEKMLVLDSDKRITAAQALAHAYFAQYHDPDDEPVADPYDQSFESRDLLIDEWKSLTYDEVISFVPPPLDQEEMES", "assay": "Inhibition of p38alpha (unknown origin) at 30 uM"}, "[12]": {"biological_target": "MAP kinase-activated protein kinase 3 (Homo sapiens) (UniProt Q16644)", "assay": "Inhibition of MAPKAPK3 (unknown origin) at 30 uM"}, "[13]": {"biological_target": "Phosphatidylinositol 4,5-bisphosphate 3-kinase catalytic subunit gamma isoform (Homo sapiens) (UniProt P48736)", "sequence (P48736 whole entry, looked up, canonical isoform)": "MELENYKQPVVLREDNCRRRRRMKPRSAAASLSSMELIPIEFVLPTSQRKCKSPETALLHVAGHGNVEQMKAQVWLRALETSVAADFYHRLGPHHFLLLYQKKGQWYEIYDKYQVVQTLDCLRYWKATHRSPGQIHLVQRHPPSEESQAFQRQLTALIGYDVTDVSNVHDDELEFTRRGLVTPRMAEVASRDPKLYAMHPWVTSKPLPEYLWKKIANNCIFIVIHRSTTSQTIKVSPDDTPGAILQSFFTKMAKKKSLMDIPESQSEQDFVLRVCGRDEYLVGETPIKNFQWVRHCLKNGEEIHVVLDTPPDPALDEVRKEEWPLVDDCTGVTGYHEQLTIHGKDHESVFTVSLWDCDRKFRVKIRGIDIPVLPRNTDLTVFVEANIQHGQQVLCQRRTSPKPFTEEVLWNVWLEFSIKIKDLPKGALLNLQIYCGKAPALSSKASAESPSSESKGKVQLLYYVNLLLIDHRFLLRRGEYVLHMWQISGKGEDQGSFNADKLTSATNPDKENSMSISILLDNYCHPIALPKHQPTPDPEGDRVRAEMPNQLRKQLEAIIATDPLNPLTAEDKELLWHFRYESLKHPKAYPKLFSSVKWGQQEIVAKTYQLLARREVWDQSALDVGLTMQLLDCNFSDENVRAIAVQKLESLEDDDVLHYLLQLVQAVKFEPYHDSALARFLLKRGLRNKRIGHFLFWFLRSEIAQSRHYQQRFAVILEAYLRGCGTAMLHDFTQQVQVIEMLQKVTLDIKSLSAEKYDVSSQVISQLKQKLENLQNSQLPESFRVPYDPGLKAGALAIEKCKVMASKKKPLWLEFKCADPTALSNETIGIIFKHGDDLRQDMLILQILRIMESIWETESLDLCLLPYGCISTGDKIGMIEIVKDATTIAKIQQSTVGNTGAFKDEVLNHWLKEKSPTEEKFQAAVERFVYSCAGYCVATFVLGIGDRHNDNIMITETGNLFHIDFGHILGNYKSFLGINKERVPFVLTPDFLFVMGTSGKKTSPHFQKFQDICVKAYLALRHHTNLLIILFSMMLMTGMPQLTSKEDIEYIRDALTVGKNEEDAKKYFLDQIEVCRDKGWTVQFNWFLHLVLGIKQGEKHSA", "assay": "Inhibition of PI3Kgamma (unknown origin) at 30 uM"}, "[14]": {"assay": "Cmax in mouse at 4 mg/kg, po", "assay_type": "ADME, organism-based", "parameters": "dose 4 mg/kg, route oral", "conditions": "in vivo"}, "[15]": {"biological_target": "RAC-beta serine/threonine-protein kinase (Homo sapiens) (UniProt P31751)", "assay": "Inhibition of AKT2 (unknown origin) at 30 uM"}, "[16]": {"biological_target": "Dual specificity mitogen-activated protein kinase kinase 4 (Homo sapiens) (UniProt P45985)", "assay": "Inhibition of MKK4 (unknown origin) at 30 uM"}, "[17]": {"biological_target": "Inhibitor of nuclear factor kappa-B kinase subunit epsilon (Homo sapiens) (UniProt Q14164)", "sequence (Q14164 whole entry)": "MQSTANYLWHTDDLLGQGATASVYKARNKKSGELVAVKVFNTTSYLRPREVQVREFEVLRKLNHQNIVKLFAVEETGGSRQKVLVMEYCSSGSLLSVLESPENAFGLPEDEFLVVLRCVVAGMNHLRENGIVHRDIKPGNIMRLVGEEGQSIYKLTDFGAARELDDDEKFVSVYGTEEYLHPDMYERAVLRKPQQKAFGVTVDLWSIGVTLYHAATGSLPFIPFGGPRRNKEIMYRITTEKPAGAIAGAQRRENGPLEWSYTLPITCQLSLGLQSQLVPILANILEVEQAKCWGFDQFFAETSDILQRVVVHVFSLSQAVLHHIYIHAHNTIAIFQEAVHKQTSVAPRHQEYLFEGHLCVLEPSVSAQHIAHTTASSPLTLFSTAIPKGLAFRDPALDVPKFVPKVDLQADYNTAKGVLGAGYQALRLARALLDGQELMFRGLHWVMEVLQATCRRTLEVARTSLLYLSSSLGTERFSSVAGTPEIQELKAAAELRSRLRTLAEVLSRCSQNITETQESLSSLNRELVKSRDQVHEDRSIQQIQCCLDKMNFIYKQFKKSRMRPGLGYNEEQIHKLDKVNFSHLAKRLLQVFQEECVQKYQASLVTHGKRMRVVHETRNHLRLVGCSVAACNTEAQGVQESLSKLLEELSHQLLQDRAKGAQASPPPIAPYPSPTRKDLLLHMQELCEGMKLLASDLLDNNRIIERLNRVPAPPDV", "assay": "Inhibition of IKKepsilon (unknown origin) at 30 uM"}, "[18]": {"biological_target": "Prostaglandin G/H synthase 1 (Homo sapiens) (UniProt P23219)", "sequence (P23219 whole entry)": "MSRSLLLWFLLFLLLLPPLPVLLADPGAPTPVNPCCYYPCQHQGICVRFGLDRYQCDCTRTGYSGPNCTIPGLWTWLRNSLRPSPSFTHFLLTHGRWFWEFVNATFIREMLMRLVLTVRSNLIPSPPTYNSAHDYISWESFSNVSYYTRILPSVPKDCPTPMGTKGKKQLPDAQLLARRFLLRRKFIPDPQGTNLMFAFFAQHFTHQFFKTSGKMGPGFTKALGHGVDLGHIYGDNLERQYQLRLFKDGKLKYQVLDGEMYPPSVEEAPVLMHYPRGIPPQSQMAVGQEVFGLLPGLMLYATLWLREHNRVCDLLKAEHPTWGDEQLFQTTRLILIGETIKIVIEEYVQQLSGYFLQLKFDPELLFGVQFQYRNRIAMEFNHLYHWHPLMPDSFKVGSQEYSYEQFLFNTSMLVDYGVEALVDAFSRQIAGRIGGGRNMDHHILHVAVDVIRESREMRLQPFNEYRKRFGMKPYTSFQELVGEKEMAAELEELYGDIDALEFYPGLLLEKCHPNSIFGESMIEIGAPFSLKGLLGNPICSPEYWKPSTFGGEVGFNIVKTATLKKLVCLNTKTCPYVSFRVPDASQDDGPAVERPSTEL", "assay": "Inhibition of COX1 (unknown origin) up to 25 uM"}, "[19]": {"biological_target": "MAP kinase-activated protein kinase 2 (Homo sapiens) (UniProt P49137)", "sequence (P49137 whole entry, looked up)": "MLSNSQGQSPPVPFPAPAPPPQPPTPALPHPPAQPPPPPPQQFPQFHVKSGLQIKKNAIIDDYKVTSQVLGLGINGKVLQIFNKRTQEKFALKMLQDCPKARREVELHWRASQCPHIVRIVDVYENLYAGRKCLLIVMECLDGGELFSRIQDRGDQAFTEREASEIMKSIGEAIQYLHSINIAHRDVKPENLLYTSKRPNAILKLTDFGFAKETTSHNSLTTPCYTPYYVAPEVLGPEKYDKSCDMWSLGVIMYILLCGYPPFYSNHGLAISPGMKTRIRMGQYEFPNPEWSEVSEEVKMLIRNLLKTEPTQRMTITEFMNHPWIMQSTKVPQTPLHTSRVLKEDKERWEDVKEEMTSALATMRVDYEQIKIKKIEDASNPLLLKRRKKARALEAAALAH", "assay": "Inhibition of MAPKAPK2 (unknown origin) at 30 uM"}},
  "note": "The source made the active and inactive calls. The rule behind the calls is not given here.",
  "data": [
    {"smiles": "O=C(Nc1ccc2c(c1)B(O)OC2)c1c(C(F)(F)F)ccc(Cl)c1F", "values": [
      {"measurement": "inhibition", "setting": "[1]", "value": "inactive"},
      {"measurement": "inhibition", "setting": "[2]", "value": "inactive"},
      {"measurement": "inhibition", "setting": "[3]", "value": "inactive"},
      {"measurement": "inhibition", "setting": "[4]", "value": "inactive"},
      {"measurement": "inhibition", "setting": "[5]", "value": "inactive"},
      {"measurement": "half-life", "setting": "[6]", "value": 7.85, "unit": "h"},
      {"measurement": "inhibition", "setting": "[7]", "value": "inactive"},
      {"measurement": "IC50", "setting": "PBMC", "value": 500, "unit": "nM"},
      {"measurement": "Tmax", "setting": "[8]", "value": 4, "unit": "h"},
      {"measurement": "half-life", "setting": "[9]", "value": 13.3, "unit": "h"},
      {"measurement": "inhibition", "setting": "[10]", "value": "inactive"},
      {"measurement": "inhibition", "setting": "Homo sapiens", "value": "inactive"},
      {"measurement": "inhibition", "setting": "[11]", "value": "inactive"},
      {"measurement": "inhibition", "setting": "[12]", "value": "inactive"},
      {"measurement": "inhibition", "setting": "[13]", "value": "inactive"},
      {"measurement": "Cmax", "setting": "[14]", "value": 5650, "unit": "ng/mL"},
      {"measurement": "inhibition", "setting": "[15]", "value": "inactive"},
      {"measurement": "inhibition", "setting": "[16]", "value": "inactive"},
      {"measurement": "inhibition", "setting": "[17]", "value": "inactive"},
      {"measurement": "inhibition", "setting": "[18]", "value": "inactive"},
      {"measurement": "inhibition", "setting": "[19]", "value": "inactive"}
    ]}
  ]
}
